Reference: US11014895B2, “Heterocyclic urea compound, and drug composition and application thereof” (CHINA PHARMACEUTICAL UNIVERSITY, priority 2017, dated 2021)

Experiments:
IDO1 enzyme = IDO1 enzyme (Homo sapiens, UniProt P14902); test: Determination of biochemical activity of IDO1 enzyme (absorbance at 320 nm); conditions: room temperature, 3 hours
How it was run: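 Enzyme and compound were reacted in sodium hydrogen phosphate buffer (pH 7-8) for 3 hours at room temperature. Absorbance at 320 nm gave inhibition rate, and IC50 was calculated from it.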

[1] = target: T1, IDO1 enzyme in the Hela cell (Homo sapiens, UniProt P14902); test: Cell activity: interferon γ-stimulated Hela cells, absorbance of supernatant at 480 nm; format: cell-based; conditions: interferon γ 100 ng/ml, 72 hours
T1 construct: endogenous in cells; host or cells: HeLa cells stimulated with interferon γ (100 ng/ml)
T1 sequence (P14902 whole entry): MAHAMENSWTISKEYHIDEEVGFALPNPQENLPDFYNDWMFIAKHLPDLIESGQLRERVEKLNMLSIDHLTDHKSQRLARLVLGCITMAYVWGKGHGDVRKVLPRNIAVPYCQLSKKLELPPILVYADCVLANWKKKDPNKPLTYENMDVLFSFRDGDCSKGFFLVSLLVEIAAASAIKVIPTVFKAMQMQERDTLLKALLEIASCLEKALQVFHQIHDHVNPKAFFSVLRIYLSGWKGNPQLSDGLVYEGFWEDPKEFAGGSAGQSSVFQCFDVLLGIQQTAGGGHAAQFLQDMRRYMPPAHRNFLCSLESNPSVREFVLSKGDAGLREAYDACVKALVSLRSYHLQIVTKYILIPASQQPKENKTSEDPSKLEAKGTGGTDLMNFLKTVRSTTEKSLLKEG
How it was run: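 HeLa cells treated with compound plus interferon γ (100 ng/ml final) and cultured 72 h at 37 °C. Supernatant treated with trichloroacetic acid 30 min at 50 °C, centrifuged, then mixed with 2% dimethylaminobenzaldehyde in acetic acid; absorbance read at 480 nm.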

IDO1 enzyme, sequence (P14902 whole entry): as above

Structure (SMILES) | IC50 (IDO1 enzyme) [µM] | IC50 [1] [µM]
O=C(Nc1ccccc1)Nc1nocc1/C(=N/O)Nc1ccc(F)c(Cl)c1 [Embodiment 98, (Z)-1-(4-(N-(3-chloro-4-fluorophenyl)-N′-hydroxyaminoiminomethyl)-isoxazole-3-substituted)-3-(phenyl)urea] | 0.1 to 1 | 0.1 to 1
COc1ccc(NC(=S)Nc2nocc2/C(=N/O)Nc2ccc(F)c(Br)c2)cc1 [Embodiment 133, (Z)-1-(4-(N-(3-bromo-4-fluorophenyl)-N′-hydroxyaminoiminomethyl)-isoxazole-3-substituted)-3-(4-methoxyphenyl)thiourea] | 0.1 to 1 | 0.1 to 1
O=C(NCCO)Nc1nocc1/C(=N/O)Nc1ccc(F)c(Br)c1 [Embodiment 89, (Z)-1-(4-(N-(3-bromo-4-fluorophenyl)-N′-hydroxyaminoiminomethyl)-isoxazole-3-substituted)+3-(2-hydroxyethyl)urea] | < 0.001 | < 0.001
O=C(NCCO)Nc1cocc1/C(=N/O)Nc1ccc(F)c(Br)c1 [Embodiment 68, (Z)-1-(4-(N-(3-bromo-4-fluorophenyl)-N′-hydroxyaminoiminomethyl)-furan-3-substituted)+3-(2-hydroxyethyl)urea] | 0.1 to 1 | 0.1 to 1
CS(=O)(=O)NCCNC(=O)Nc1cocc1/C(=N/O)Nc1ccc(F)c(Br)c1 [Embodiment 72, (Z)-1-(4-(N-(3-bromo-4-fluorophenyl)-N′-hydroxyaminoiminomethyl)-furan-3-substituted)-3-(2-methamidoethyl)urea] | 0.1 to 1 | 0.1 to 1
NS(=O)(=O)NCCNC(=O)Nc1nonc1/C(=N/O)Nc1ccc(F)c(Cl)c1 [Embodiment 30] | < 0.001 | < 0.001
O=C(Nc1ccsc1)Nc1cocc1/C(=N/O)Nc1ccc(F)c(Br)c1 [Embodiment 78] | > 1 | > 1
Nc1ccc(NC(=O)Nc2nonc2/C(=N/O)Nc2ccc(F)c(Cl)c2)cc1 [Embodiment 24, (Z)-1-(4-(N-(3-chloro-4-fluorophenyl)-N′-hydroxyaminoiminomethyl)-1,2,5-oxadiazole-3-substituted)-3-(4-aminophenyl)urea] | < 0.001 | < 0.001
O=C(Nc1conc1/C(=N/O)Nc1ccc(F)c(Cl)c1)NC1CCCCC1 [Embodiment 114] | < 0.001 | < 0.001
O=C(Nc1cocc1/C(=N/O)Nc1ccc(F)c(Br)c1)NC1CCCC1 [Embodiment 62, (Z)-1-(4-(N-(3-bromo-4-fluorophenyl)-N′-hydroxyaminoiminomethyl)-furan-3-substituted)-3-cyclopentylurea] | 0.1 to 1 | 0.1 to 1
COc1ccc(NC(=O)Nc2nonc2/C(=N/O)Nc2ccc(F)cc2)cc1 [Embodiment 54, (Z)-1-(4-(N-(4-fluorophenyl)-N′-hydroxyaminoiminomethyl)-1,2,5-oxadiazole-3-substituted)-3-(4-methoxyphenyl)urea] | 0.1 to 1 | 0.1 to 1
CCCNC(=O)Nc1nocc1/C(=N/O)Nc1ccc(F)c(Br)c1 [Embodiment 91, (Z)-1-(4-(N-(3-bromo-4-fluorophenyl)-N′-hydroxyaminoiminomethyl)-isoxazole-3-substituted)-3-(propyl)urea] | 0.1 to 1 | 0.1 to 1
N#Cc1ccc(NC(=O)Nc2nonc2/C(=N/O)Nc2ccc(F)cc2)cc1 [Embodiment 57, (Z)-1-(4-(N-(4-fluorophenyl)-N′-hydroxyaminoiminomethyl)-1,2,5-oxadiazole-3-substituted)-3-(4-cyanophenyl)urea] | > 1 | > 1
NCCNC(=O)Nc1cocc1/C(=N/O)Nc1ccc(F)c(Br)c1 [Embodiment 69, (Z)-1-(4-(N-(3-bromo-4-fluorophenyl)-N′-hydroxyaminoiminomethyl)-furan-3-substituted)-3-(2-aminoethyl)urea] | 0.1 to 1 | 0.1 to 1

Continued, values first:

IC50 (IDO1 enzyme) [µM] | IC50 [1] [µM] | Structure (SMILES)
< 0.001 | < 0.001 | N=C(Nc1nonc1/C(=N/O)Nc1ccc(F)c(Br)c1)NC1CCNCC1 [Embodiment 148, (Z)-1-(4-(N-(3-bromo-4-fluorophenyl)-N′-hydroxyaminoiminomethyl)-1,2,5-oxadiazole-3-substituted)-3-(piperidine-4-substituted)guanidine]
0.1 to 1 | 0.1 to 1 | O/N=C(\Nc1ccc(F)c(Br)c1)c1conc1NC(=S)NC1CCCCC1 [Embodiment 135, (Z)-1-(4-(N-(3-bromo-4-fluorophenyl)-N′-hydroxyaminoiminomethyl)-isoxazole-3-substituted)-3-(cyclohexyl)thiourea]
< 0.001 | < 0.001 | NS(=O)(=O)NCCCNC(=O)Nc1nonc1/C(=N/O)Nc1ccc(F)c(Br)c1 [Embodiment 18, (Z)-1-(4-(N-(3-bromo-4-fluorophenyl)-N′-hydroxyaminoiminomethyl)-1,2,5-oxadiazole-3-substituted)-3-(3-aminosulfonylamino-propyl)urea]
< 0.001 | < 0.001 | O=C(Nc1nonc1/C(=N/O)Nc1ccc(F)c(Br)c1)NC1CCOCC1 [Embodiment 10, (Z)-1-(4-(N-(3-bromo-4-fluorophenyl)-N′-hydroxyaminoiminomethyl)-1,2,5-oxadiazole-3-substituted)-3-(tetrahydro-2H-pyran-4-substituted)urea]
< 0.001 | < 0.001 | O=C(Nc1conc1/C(=N/O)Nc1ccc(F)c(Br)c1)NC1CCNCC1 [Embodiment 106]
0.1 to 1 | 0.1 to 1 | O=C(Nc1nocc1/C(=N/O)Nc1ccc(F)c(Br)c1)NC1CCC(O)CC1 (stereo not drawn) [Embodiment 84, (Z)-1-(4-(N-(3-bromo-4-fluorophenyl)-N′-hydroxyaminoiminomethyl)-isoxazole-3-substituted)-3-(4-hydroxycyclohexyl)urea]
< 0.001 | < 0.001 | NS(=O)(=O)N1CCC(NC(=O)Nc2nonc2/C(=N/O)Nc2ccc(F)c(Br)c2)CC1 [Embodiment 15, (Z)-1-(4-(N-(3-bromo-4-fluorophenyl)-N′-hydroxyaminoiminomethyl)-1,2,5-oxadiazole-3-substituted)-3-(1(aminosulfonyl)piperidine-4-substituted)urea]
0.1 to 1 | 0.1 to 1 | O=C(Nc1cocc1/C(=N/O)Nc1ccc(F)c(Br)c1)NC1CCNCC1 [Embodiment 64, (Z)-1-(4-(N-(3-bromo-4-fluorophenyl)-N′-hydroxyaminoiminomethyl)-furan-3-substituted)-3-(piperidine-4-substituted)urea]
0.1 to 1 | 0.1 to 1 | O=C(Nc1nonc1/C(=N/O)Nc1ccc(F)c(Br)c1)Nc1cccc2cc[nH]c12 [Embodiment 36, (Z)-1-(4-(N-(3-bromo-4-fluorophenyl)-N′-hydroxyaminoiminomethyl)-1,2,5-oxadiazole-3-substituted)-3-(1H-indole-7-substituted)urea]
> 1 | > 1 | O/N=C(\Nc1ccc(F)c(Br)c1)c1nonc1NC(=S)NC1CCCC1 [Embodiment 122, (Z)-1-(4-(N-(3-bromo-4-fluorophenyl)-N′-hydroxyaminoiminomethyl)-1,2,5-oxadiazole-3-substituted)-3-(cyclopentyl)thiourea]
0.1 to 1 | 0.1 to 1 | O=C(Nc1cc[nH]c1)Nc1nonc1/C(=N/O)Nc1ccc(F)c(Br)c1 [Embodiment 40, (Z)-1-(4-(N-(3-bromo-4-fluorophenyl)-N′-hydroxyaminoiminomethyl)-1,2,5-oxadiazole-3-substituted)-3-(1H-pyrrole-3-substituted)urea]
< 0.001 | < 0.001 | N=C(NCCN)Nc1nonc1/C(=N/O)Nc1ccc(F)c(Br)c1 [Embodiment 153]
0.1 to 1 | 0.1 to 1 | N=C(Nc1conc1/C(=N/O)Nc1ccc(F)c(Cl)c1)NC1CCCCC1 [Embodiment 156, (Z)-1-(4-(N-(3-chloro-4-fluorophenyl)-N′-hydroxyaminoiminomethyl)-isoxazole-3-substituted)-4-cyclohexylguanidine]
0.1 to 1 | 0.1 to 1 | N=C(Nc1nocc1/C(=N/O)Nc1ccc(F)c(Br)c1)NC1CCCCC1 [Embodiment 159, (Z)-1-(4-(N-(3-bromo-4-fluorophenyl)-N′-hydroxyaminoiminomethyl)-isoxazole-3-substituted)-3-cyclohexylguanidine]
> 1 | > 1 | O=C(Nc1conc1/C(=N/O)Nc1ccc(F)c(Br)c1)NC1CCCC1 [Embodiment 104, (Z)-1-(4-(N-(3-bromo-4-fluorophenyl)-N′-hydroxyaminoiminomethyl)-isoxazole-3-substituted)-4-(cyclopentyl)urea]
> 1 | > 1 | O=C(Nc1nocc1/C(=N/O)Nc1ccc(F)c(Br)c1)NC1CCCC1 [Embodiment 83, (Z)-1-(4-(N-(3-bromo-4-fluorophenyl)-N′-hydroxyaminoiminomethyl)-isoxazole-3-substituted)-3-(cyclopentyl)urea]
< 0.001 | < 0.001 | NCCCNC(=O)Nc1nonc1/C(=N/O)Nc1ccc(F)c(Br)c1 [Embodiment 14, (Z)-1-(4-(N-(3-bromo-4-fluorophenyl)-N′-hydroxyaminoiminomethyl)-1,2,5-oxadiazole-3-substituted)-3-(3-aminopropane)urea]
< 0.001 | < 0.001 | N=C(Nc1nonc1/C(=N/O)Nc1ccc(F)c(Br)c1)NC1CCC(O)CC1 (stereo not drawn) [Embodiment 147, (Z)-1-(4-(N-(3-bromo-4-fluorophenyl)-N′-hydroxyaminoiminomethyl)-1,2,5-oxadiazole-3-substituted)-3-(4-hydroxycyclohexyl)guanidine]
0.1 to 1 | 0.1 to 1 | O=C(Nc1ccncc1)Nc1nonc1/C(=N/O)Nc1ccc(F)c(Br)c1 [Embodiment 35]
